From US7989466B2, “Methods to inhibit or augment an inflammatory response” (Cambridge Enterprise Limited, priority 1999, dated 2011) come the findings set out here.

Positions of bridges follow the written chain, without caps; N, C: chain ends. Non-standard residues stand in square brackets, D forms with d. Residues, ends and D or L forms follow the SMILES beside them.

Experiment [1] has as its system antigen specific antibody recall response. Briefly: Cynomolgus monkeys immunized with scFv antigen. The class given is in vivo. To be noted: single dose 50 mg/kg i.v. The protocol: Cynomolgus monkeys were immunized with antigen that is a single chain Fv (scFv) protein. Each animal previously received 3 i.v. injections of the antigen and all developed high serum titers. Five animals were randomly divided into 2 groups. Two animals served as PBS treated controls and 3 were treated i.v. with 50 mg/kg CRD-Leu4Ile11Cys13 peptide 3(3-12)[MCP-1]. Thirty minutes following CRD-Leu4Ile11Cys13 peptide 3(3-12)[MCP-1] treatment all animals were challenged i.v. with 3.5 mg/kg antigen. In addition, animals were challenged intradermal with each of the following in a volume of 50 μl:PBS; 50 μg antigen; 5 μg antigen; 0.5 μg antigen; 500 ng MCP-1; or 50 ng LPS. Serum was collected at 10 minutes, 30 minutes, 60 minutes, 4 hours, and 24 hours. Animals were sacrificed 24 hours after CRD-Leu4Ile11Cys13 peptide 3(3-12)[MCP-1] injection and complete necropsy performed and tissues fixed for histopathology. Fixed and frozen skin samples were harvested for histopathology and immunohistochemistry. […] Blood was also analyzed pre- and post-CRD-Leu4Ile11Cys13 peptide 3(3-12)[MCP-1] injection for hematology parameters and serum chemistry. Serum levels were evaluated by an LC-MS method (limit of quantitation=1 μg/ml) pre-treatment and then at 10 minutes, 30 minutes, 60 minutes, 4 hours and 20-24 hours after injection. […]

Experiment [2] deals with RANTES induced THP-1 migration. Briefly: THP-1 trans-well migration assay, RANTES as chemoattractant. The class given is cell-based, human. To be noted: Homo sapiens, THP-1; read-out: ED50, RANTES chemotaxis assay. The protocol:
To determine whether an agent inhibits a chemokine-induced activity, such as macrophage recruitment, varying amounts of the agent are mixed with cells in the presence of a known chemoattractant. For example, a range of known concentrations of an agent, e.g., a chemokine peptide, is incubated with a defined number (e.g., 10^4-10^6) of human THP-1 monocyte cells in individual wells of the top compartment of a trans-well plate. Chemokine (such as MCP-1, MIP1α, IL8 or SDF-1α), at a concentration known to cause significant migration of THP-1 cells in the trans-well migration assay, is placed in the lower compartment (FIG. 1). […] A standard curve consisting of a two-fold dilution series of THP-1 cells (in 29 μl) is prepared to accurately quantify the number of cells that have migrated. […] Absorbance of converted dye is measured at a wavelength of 595 nm using an ELISA plate reader. The number of migrated cells in each well is then determined by interpolation of the standard curve (see also Imai et al., J. Biol. Chem., 272, 15036 (1997)). […]
After incubation, the cells were gently removed from the top of the filter with a pipette, 20 μl of 20 mM EDTA in PBS was added into each top well, and the mixture was incubated for 20 minutes at 4° C. […] A standard curve was prepared to accurately quantify the number of THP-1 cells that had migrated. […]

`CC[C@@H](C)[C@H]1NC(=O)[C@@H](CCC(N)=O)NC(=O)[C@H](N)CSSC[C@H](C(N)=O)NC(=O)[C@@H](CC(C)C)NC(=O)[C@@H](CC(=O)O)NC(=O)[C@H]2CCCN2C(=O)[C@@H](CCCCN)NC(=O)[C@@H](CCC(N)=O)NC(=O)[C@@H](CCCCN)NC(=O)[C@@H](Cc2c[nH]c3ccccc23)NC1=O` (H-[dC][dQ][dI][dW][dK][dQ][dK][dP][dD][dL][dC]-NH2; disulfide 1-11; N-terminus assumed): the “antigen specific antibody response in splenocyte, lymph node and PBL recall responses” value in experiment [1] was “reduced antigen specific antibody response”.

Regarding `C=CCCCCCCCCC(=O)N[C@H]1CCC(=O)NC1=O` [A-I (NR58.4), [3S]-3-(undec-10-enoylamino)piperidine-2,6-dione], the EC50 in experiment [2] is 0.3 nM.
